ChEMBL document CHEMBL4619724, “Environment-sensitive fluorescent inhibitors of histone deacetylase” (Bioorg Med Chem Lett, 2020)

Columns and labels:
Histone deacetylase = test: Inhibition of HDAC in human HeLa cell extracts assessed as inhibition of substrate deacetylation using Boc-Lys (acetyl)-AMC as substrate by fluorescence based assay
A549 = test: Antiproliferative activity against human A549 cells incubated for 24 hrs by CCK8 assay; assay type: functional, cell-based; settings: A549, 24 h
MOLT-4 [1] = test: Antiproliferative activity against human MOLT4 cells incubated for 24 hrs by CCK8 assay; assay type: functional, cell-based; settings: MOLT-4, 24 h
K562 = test: Antiproliferative activity against human K562 cells incubated for 24 hrs by CCK8 assay; assay type: functional, cell-based; settings: K562, 24 h
MOLT-4 [2] = test: Induction of apoptosis in human MOLT4 cells assessed as increase in apoptotic cells at 5 uM incubated for 24 hrs by Annexin V and PE staining based flow cytometric analysis relative to control; assay type: functional
PC-3 = test: Antiproliferative activity against human PC3 cells incubated for 24 hrs by CCK8 assay; assay type: functional, cell-based; settings: PC-3, 24 h
[3] = Drug uptake in human MOLT4 cell membrane at 5 uM incubated for 30 mins by DID staining based confocal microscopic method; assay type: ADME; settings: molt-4, 0.5 h
[4] = Drug uptake in nude mouse thigh muscles assessed as increase in fluorescence intensity in tissue at 10 uM by fluorescence upright microscopic method; assay type: ADME, tissue-based, Thigh muscle; settings: in vivo
[5] = Drug uptake in tumor tissue of nude mouse xenografted with human PC3 cells assessed as increase in fluorescence intensity at 10 uM by fluorescence upright microscopic method; assay type: ADME, tissue-based, Neoplasm, PC-3; settings: in vivo
[6] = Drug uptake in cytoplasm in human PC3 cells overexpressing HDAC at 5 uM incubated for 30 mins by fluorescence microscopic method; assay type: ADME, subcellular; settings: pc-3, 0.5 h
[7] = Drug uptake in cytoplasm in HEK293 cells harboring low HDAC expression at 5 uM incubated for 30 mins by fluorescence microscopic method; assay type: ADME, subcellular; settings: human, hek293, 0.5 h
[8] = Drug uptake in tumor tissue of nude mouse xenografted with human PC3 cells assessed as increase in fluorescence intensity in tumor tissue at 10 uM in presence of HDAC inhibitor, SAHA by fluorescence upright microscopic method; assay type: ADME, tissue-based, Neoplasm, PC-3; settings: in vivo
[9] = Drug uptake in cytoplasm in human MOLT4 cells overexpressing HDAC at 5 uM incubated for 30 mins by fluorescence microscopic method; assay type: ADME, subcellular; settings: molt-4, 0.5 h
[10] = Drug uptake in nude mouse skin assessed as increase in fluorescence intensity in tissue at 10 uM by fluorescence upright microscopic method; assay type: ADME, tissue-based, Zone of skin; settings: in vivo
[11] = Drug uptake in nucleus in human MOLT4 cells at 5 uM incubated for 30 mins by Hoechst 33342 staining based confocal microscopic method; assay type: ADME, subcellular; settings: molt-4, 0.5 h

Structure (SMILES)	IC50 (Histone deacetylase)	IC50 (A549)	IC50 (MOLT-4 [1])	IC50 (K562)	IC50 (PC-3)	Activity (MOLT-4 [2])	further results
CN(C)S(=O)(=O)c1ccc(NCCCCCCC(=O)NO)c2nonc12		> 100 µM	7.84 µM	11 µM	52.6 µM	20.02%	Drug uptake [3]: 62.1%; Drug uptake [4]: Not Active; Drug uptake [5]: Active; Drug uptake [6]: Active; Drug uptake [7]: Not Active; Drug uptake [8]: Not Active; Drug uptake [9]: Active; Drug uptake [10]: Not Active; Drug uptake [11]: Not Active
O=C(CCCCCCC(=O)Nc1ccccc1)NO [VORINOSTAT]						29.58%	

The next lines start with results.

IC50 (Histone deacetylase)	IC50 (A549)	IC50 (MOLT-4 [1])	IC50 (K562)	IC50 (PC-3)	Structure (SMILES)	Activity (MOLT-4 [2])	further results
> 100 µM					CC(C)CC(NC(=O)NCCCCCNc1ccc(S(=O)(=O)N(C)C)c2nonc12)C(=O)NO (configuration not stated)		
	> 100 µM	3.55 µM	15.2 µM	31.2 µM	CN(C)S(=O)(=O)c1ccc(NCCCCCC(=O)NO)c2nonc12	23.3%	
7.58 µM					CN(C)S(=O)(=O)c1ccc(NCCCCCNC(=O)NCC(=O)NO)c2nonc12		
